Columns and labels:
Plasma = conditions: human
clinical = conditions: human, in vivo
[1] = Dissociation constant, pKa of the compound; assay type: physicochemical

Structure (SMILES) | fu (Plasma) | Vd (clinical) [L/kg] | pKa [1]
CC(=O)[C@@]1(O)CC[C@H]2[C@@H]3C[C@H](C)C4=CC(=O)CC[C@]4(C)[C@H]3CC[C@@]21C | 0.1 | 4.66 | 
CCOC(=O)[C@H](CCc1ccccc1)N[C@@H](C)C(=O)N1CCC[C@H]1C(=O)O | 0.4 | 1.7 | 
CC(=O)Nc1ccc(O)cc1 [ACETAMINOPHEN] | 1 |  | 
Nc1ncnc2c1ncn2CCOCP(=O)(O)O [ADEFOVIR] | 0.895 |  | 1.3
CC(C)(C)NCC(O)c1ccc(O)c(CO)c1 (centres undefined) [ALBUTEROL] | 0.93 |  | 
CN(C)CCC=C1c2ccccc2CCc2ccccc21 [AMITRIPTYLINE] | 0.06 |  | 
CCC1(CCC(C)C)C(=O)NC(=O)NC1=O [AMOBARBITAL] |  | 1.05 | 
Cc1cc(=O)n(-c2ccccc2)n1C [ANTIPYRINE] | 0.87 |  | 
CN1CCc2cccc3c2[C@H]1Cc1ccc(O)c(O)c1-3 [APOMORPHINE] | 0.5 | 2 | 
CC(=O)Oc1ccccc1C(=O)O [ASPIRIN] | 0.3 | 0.15 | 
CC(C)NCC(O)COc1ccc(CC(N)=O)cc1 (centres undefined) [ATENOLOL] | 0.91 |  | 
C[C@H]1[C@H](NC(=O)/C(=N\OC(C)(C)C(=O)O)c2csc(N)n2)C(=O)N1S(=O)(=O)O [AZTREONAM] |  |  | 2.75
NC(=O)N1c2ccccc2C=Cc2ccccc21 [CARBAMAZEPINE] | 0.25 | 1.4 | 
Cc1nnc(SCC2=C(C(=O)O)N3C(=O)[C@@H](NC(=O)Cn4cnnn4)[C@H]3SC2)s1 [CEFAZOLIN] |  |  | 2.1
C=CC1=C(C(=O)O)N2C(=O)[C@@H](NC(=O)/C(=N\OCC(=O)O)c3csc(N)n3)[C@H]2SC1 [CEFIXIME] | 0.33 |  | 2.1
CCN1CCN(C(=O)N[C@@H](C(=O)N[C@@H]2C(=O)N3C(C(=O)O)=C(CSc4nnnn4C)CS[C@H]23)c2ccc(O)cc2)C(=O)C1=O [CEFOPERAZONE] |  |  | 2.6
CO/N=C(\C(=O)N[C@@H]1C(=O)N2C(C(=O)O)=C(CSc3nc(=O)c(=O)[nH]n3C)CS[C@H]12)c1csc(N)n1 [CEFTRIAXONE] | 0.075 |  | 2.7
O=C(O)CCCc1ccc(N(CCCl)CCCl)cc1 [CHLORAMBUCIL] |  | 0.29 | 
O=C(N[C@H](CO)[C@H](O)c1ccc([N+](=O)[O-])cc1)C(Cl)Cl [CHLORAMPHENICOL] | 0.47 |  | 
CN(C)CCC(c1ccc(Cl)cc1)c1ccccn1 (centres undefined) [CHLORPHENIRAMINE] | 0.3 |  | 
CN/C(=N/CCSCc1nc[nH]c1C)NC#N [CIMETIDINE] | 0.81 |  | 
Clc1cccc(Cl)c1N=C1NCCN1 [CLONIDINE] | 0.8 |  | 
COc1ccc2c3c1O[C@H]1[C@@H](O)C=C[C@H]4[C@@H](C2)N(C)CC[C@@]341 [CODEINE] | 0.93 |  | 
CN1C(=O)CN=C(c2ccccc2)c2cc(Cl)ccc21 [DIAZEPAM] | 0.02 |  | 

Structure (SMILES) | fu (Plasma) | Vd (clinical) [L/kg] | pKa [1]
O=C(O)Cc1ccccc1Nc1c(Cl)cccc1Cl [DICLOFENAC] | 0.01 |  | 
C[C@H]1O[C@@H](O[C@H]2[C@@H](O)C[C@H](O[C@H]3[C@@H](O)C[C@H](O[C@H]4CC[C@@]5(C)[C@H](CC[C@@H]6[C@@H]5C[C@@H](O)[C@]5(C)[C@@H](C7=CC(=O)OC7)CC[C@]65O)C4)O[C@@H]3C)O[C@@H]2C)C[C@H](O)[C@@H]1O [DIGOXIN] |  | 3.12 | 
CN(C)CCC=C1c2ccccc2COc2ccccc21 [DOXEPIN] | 0.17 | 11.7 | 
Cn1c(=O)c2c(ncn2CC(O)CO)n(C)c1=O (centres undefined) [DYPHYLLINE] | 0.6 | 0.8 | 
C[C@]12CC[C@@H]3c4ccc(O)cc4CC[C@H]3[C@@H]1CC[C@@H]2O [ESTRADIOL] | 0.015 |  | 
NC(N)=Nc1nc(CSCCC(N)=NS(N)(=O)=O)cs1 [FAMOTIDINE] | 0.83 |  | 
CC(C(=O)O)c1ccc(-c2ccccc2)c(F)c1 (centres undefined) [FLURBIPROFEN] | 0.01 | 0.12 | 
NS(=O)(=O)c1cc(C(=O)O)c(NCc2ccco2)cc1Cl [FUROSEMIDE] | 0.03 |  | 
COc1ccc(Cl)cc1C(=O)NCCc1ccc(S(=O)(=O)NC(=O)NC2CCCCC2)cc1 [GLYBURIDE] | 0.01 | 0.14 | 
COC1=CC(=O)C[C@@H](C)[C@]12Oc1c(Cl)c(OC)cc(OC)c1C2=O [GRISEOFULVIN] | 0.16 | 1.5 | 
NS(=O)(=O)c1cc2c(cc1Cl)NCNS2(=O)=O [HYDROCHLOROTHIAZIDE] | 0.6 | 0.83 | 
C[C@]12CCC(=O)C=C1CC[C@@H]1[C@@H]2[C@@H](O)C[C@@]2(C)[C@H]1CC[C@]2(O)C(=O)CO [HYDROCORTISONE] | 0.09 |  | 
COc1ccc2c(c1)c(CC(=O)O)c(C)n2C(=O)c1ccc(Cl)cc1 [INDOMETHACIN] | 0.1 | 0.1 | 
NNC(=O)c1ccncc1 [ISONIAZID] | 1 | 0.67 | 
CC(C(=O)O)c1cccc(C(=O)c2ccccc2)c1 (centres undefined) [KETOPROFEN] |  | 0.15 | 
Cc1c(OCC(F)(F)F)ccnc1C[S+]([O-])c1nc2ccccc2[nH]1 (centres undefined) [LANSOPRAZOLE] | 0.03 | 0.35 | 
C[C@H]1COc2c(N3CCN(C)CC3)c(F)cc3c(=O)c(C(=O)O)cn1c23.C[C@H]1COc2c(N3CCN(C)CC3)c(F)cc3c(=O)c(C(=O)O)cn1c23.O [LEVOFLOXACIN] | 0.69 | 1.36 | 
CCC[C@@H]1C[C@@H](C(=O)N[C@@H]([C@H]2O[C@H](SC)[C@H](O)[C@@H](O)[C@H]2O)[C@@H](C)O)N(C)C1 [LINCOMYCIN] | 0.28 | 1.3 | 
Cc1cnc(NC(=O)C2=C(O)c3ccccc3S(=O)(=O)N2C)s1 [MELOXICAM] | 0.006 |  | 
CCOC(=O)C1(c2ccccc2)CCN(C)CC1 [MEPERIDINE] | 0.42 |  | 10.5
CN(C)C(=N)N=C(N)N [METFORMIN] |  | 2.45 | 
CN1CC[C@]23c4c5ccc(O)c4O[C@H]2[C@@H](O)C=C[C@H]3[C@H]1C5 [MORPHINE] | 0.61 |  | 
COc1ccc2cc([C@H](C)C(=O)O)ccc2c1 [NAPROXEN] | 0.01 |  | 
COC(=O)C1=C(C)NC(C)=C(C(=O)OCCN(C)Cc2ccccc2)C1c1cccc([N+](=O)[O-])c1 (centres undefined) [NICARDIPINE] | 0.05 | 0.98 | 

Structure (SMILES) | fu (Plasma) | Vd (clinical) [L/kg] | pKa [1]
COCCOC(=O)C1=C(C)NC(C)=C(C(=O)OC(C)C)C1c1cccc([N+](=O)[O-])c1 (centres undefined) [NIMODIPINE] | 0.05 | 1.5 | 
CC1(C)S[C@@H]2[C@H](NC(=O)Cc3ccccc3)C(=O)N2[C@H]1C(=O)O [PENICILLIN G] | 0.425 |  | 
CCC1(c2ccccc2)C(=O)NC(=O)NC1=O [PHENOBARBITAL] | 0.5 | 0.63 | 
O=C1NC(=O)C(c2ccccc2)(c2ccccc2)N1 [PHENYTOIN] | 0.1 | 0.64 | 
CN1C(C(=O)Nc2ccccn2)=C(O)c2ccccc2S1(=O)=O [PIROXICAM] | 0.01 | 0.14 | 
C[C@]12C=CC(=O)C=C1CC[C@@H]1[C@@H]2[C@@H](O)C[C@@]2(C)[C@H]1CC[C@]2(O)C(=O)CO [PREDNISOLONE] | 0.075 |  | 
C[C@]12C=CC(=O)C=C1CC[C@@H]1[C@@H]2C(=O)C[C@@]2(C)[C@H]1CC[C@]2(O)C(=O)CO [PREDNISONE] | 0.25 |  | 
CC(CN1c2ccccc2Sc2ccccc21)N(C)C (centres undefined) [PROMETHAZINE] | 0.07 |  | 
CCCNCC(O)COc1ccccc1C(=O)CCc1ccccc1 (centres undefined) [PROPAFENONE] | 0.05 |  | 
CC(C)NCC(O)COc1cccc2ccccc12 (centres undefined) [PROPRANOLOL] | 0.1 |  | 
CN[C@@H](C)[C@@H](O)c1ccccc1 [PSEUDOEPHEDRINE] | 1 | 2.84 | 
NC(=O)c1cnccn1 [PYRAZINAMIDE] | 0.9 | 0.7 | 
CCCN1CCCC[C@H]1C(=O)Nc1c(C)cccc1C [ROPIVACAINE] | 0.06 | 0.55 | 
O=C(O)c1ccccc1O [SALICYLIC ACID] | 0.05 | 0.17 | 
CCC(C)(C)C(=O)O[C@H]1C[C@@H](C)C=C2C=C[C@H](C)[C@H](CC[C@@H]3C[C@@H](O)CC(=O)O3)[C@H]21 [SIMVASTATIN] |  | 0.98 | 
Nc1ccc(S(=O)(=O)Nc2ncccn2)cc1 [SULFADIAZINE] | 0.55 | 0.92 | 
CCN1CCCC1CNC(=O)c1cc(S(N)(=O)=O)ccc1OC (centres undefined) [SULPIRIDE] | 0.6 | 2.5 | 
CCS(=O)(=O)CCn1c([N+](=O)[O-])cnc1C [TINIDAZOLE] | 0.88 | 0.7 | 
CCCCNC(=O)NS(=O)(=O)c1ccc(C)cc1 [TOLBUTAMIDE] |  | 0.14 | 
C[C@]12C=CC(=O)C=C1CC[C@H]1[C@@H]3C[C@@H](O)[C@](O)(C(=O)CO)[C@@]3(C)C[C@H](O)[C@@]12F [TRIAMCINOLONE] | 0.32 | 1.76 | 
COc1cc(Cc2cnc(N)nc2N)cc(OC)c1OC [TRIMETHOPRIM] | 0.63 |  | 
CC(=O)CC(c1ccccc1)c1c(O)c2ccccc2oc1=O (centres undefined) [WARFARIN] | 0.01 | 0.14 | 
